{
  "source": "patent US20150139901A1",
  "about": "“Radioactive Rhodium Complexes, Preparation Methods and Uses Thereof” (Institut National de la Sante et de la Recherche Medicale …, priority 2012, published 2015)",
  "experiment": "Stability test in human serum (15 h incubation, TLC control of supernatant)",
  "format": "in vitro ADME",
  "conditions": "controlled by TLC",
  "experimental": "The compound of Example 4 (7.5-10.5 MBq) was prepared according to the previously described procedure. The resulting organic solution was evaporated until the final volume was about 50 μL. The complex was purified by silica gel chromatography using DCM/MeOH (99/1) as mobile phase. Activity was counted for each 500 μL aliquots and fractions of interest were concentrated under nitrogen flux. One ml of human serum was then added. The solution was gently stirred and divided into two aliquots incubated 15 h. respectively at 4° C. and 37° C. Then, serum proteins were precipitated by adding 750 μl of organic solvents mixture (ACN/DCM 100/1). Supernatant was separated by centrifugation at 4000 rpm and controlled by TLC.",
  "data": [
    {"substance": "(^211At)(1-benzyl-3-(4-nitrophenyl)imidazolidene)(cyclooctadiene) rhodium(+I) [Example 4]", "values": [
      {"measurement": "degradation in human serum", "setting": "incubated 15 h, result sentence prints 30° C. (method: 37° C.)", "value": "No degradation"},
      {"measurement": "degradation in human serum", "setting": "incubated 15 h at 4° C.", "value": "No degradation"}
    ]}
  ]
}
